Results from US10246456B2, “IRAK4 inhibiting agents” (BIOGEN MA INC., priority 2014, dated 2019).

Tests used:
[1] = tested on: IL-6 in A549 cells; assay: Cell-based IL-6 ELISA assay in IL-1beta stimulated A549 cells; conditions: 2 ng/ml human IL-1beta overnight
How it was run: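 A549 cells (2.5×10^4/well, DMEM/10% FBS) pretreated 30 min at 37 C with compound, 10-point serial dilution from 10 uM, then stimulated overnight with 2 ng/ml human IL-1beta. Secreted IL-6 in supernatant quantified by human IL-6 ELISA.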

[2] = molecular target: IRAK4 (Homo sapiens (Human), UniProt Q9NWZ3); assay: IRAK-4 AlphaScreen biochemical kinase assay; conditions: 1 nM IRAK4, 1 mM ATP, 3.5 h at RT
IRAK4, sequence (Q9NWZ3 whole entry, species assumed): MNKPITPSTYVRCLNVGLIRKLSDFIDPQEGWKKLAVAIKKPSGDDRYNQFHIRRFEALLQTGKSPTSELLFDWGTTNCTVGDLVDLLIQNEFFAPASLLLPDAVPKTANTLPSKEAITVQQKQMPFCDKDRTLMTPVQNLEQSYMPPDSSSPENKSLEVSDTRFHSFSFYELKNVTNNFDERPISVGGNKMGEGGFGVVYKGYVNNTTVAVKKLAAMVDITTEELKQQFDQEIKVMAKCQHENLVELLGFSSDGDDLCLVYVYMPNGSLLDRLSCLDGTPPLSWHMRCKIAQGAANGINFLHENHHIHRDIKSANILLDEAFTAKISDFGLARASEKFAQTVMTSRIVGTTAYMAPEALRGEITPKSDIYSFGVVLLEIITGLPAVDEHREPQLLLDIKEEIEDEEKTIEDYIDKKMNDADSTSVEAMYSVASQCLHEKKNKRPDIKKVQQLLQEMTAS
How it was run: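 AlphaScreen read-out: streptavidin beads bind the biotinylated peptide and protein A beads bind the anti-phosphothreonine antibody, so energy transfer reports phosphorylation of the peptide. The kinase is human IRAK-4.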

EC50 [1] [nM] | IC50 [2] [nM] | SMILES
≤ 1000 | < 100 | CCC[C@H](N)c1cccc(-c2cc(C3=CCOCC3)c3cnn(-c4cccc(CO)n4)c3c2)n1 [Example 494, (S)-(6-(6-(6-(1-aminobutyl)pyridin-2-yl)-4-(3,6-dihydro-2H-pyran-4-yl)-1H-indazol-1-yl)pyridin-2-yl)methanol]
≤ 1000 | < 100 | CCC[C@H](N)c1cccc(-c2cc(COC)c3cnn(-c4cccc(CO)n4)c3c2)n1 [Example 495, (S)-(6-(6-(6-(1-aminobutyl)pyridin-2-yl)-4-(methoxymethyl)-1H-indazol-1-yl)pyridin-2-yl)methanol]
≤ 1000 | < 100 | COc1cc(-c2cccc([C@@H](N)C3CC3)n2)cc2c1cnn2-c1cncc(CO)n1 [Example 496, (S)-(6-(6-(6-(amino(cyclopropyl)methyl)pyridin-2-yl)-4-methoxy-1H-indazol-1-yl)pyrazin-2-yl)methanol]
≤ 1000 | < 100 | CCC[C@H](N)c1cccc(-c2cc(COC(F)F)c3cnn(-c4cccc(CO)n4)c3c2)n1 [Example 497, (S)-(6-(6-(6-(1-aminobutyl)pyridin-2-yl)-4-((difluoromethoxy)methyl)-1H-indazol-1-yl)pyridin-2-yl)methanol]
≤ 1000 | < 100 | CCC[C@H](N)c1cccc(-c2cc(CN3CCOCC3)c3cnn(-c4cccc(CO)n4)c3c2)n1 [Example 498, (S)-(6-(6-(6-(1-aminobutyl)pyridin-2-yl)-4-(morpholinomethyl)-1H-indazol-1-yl)pyridin-2-yl)methanol]
≤ 1000 | < 100 | CCC[C@H](N)c1cccc(-c2cc(OCC)c3cnn(-c4cncc(CO)n4)c3c2)n1 [Example 499, (S)-(6-(6-(6-(1-aminobutyl)pyridin-2-yl)-4-ethoxy-1H-indazol-1-yl)pyrazin-2-yl)methanol]
≤ 1000 | < 100 | CCOc1cc(-c2cccc([C@@H](N)CC)n2)cc2c1cnn2-c1cncc(CO)n1 [Example 500, (S)-(6-(6-(6-(1-aminopropyl)pyridin-2-yl)-4-ethoxy-1H-indazol-1-yl)pyrazin-2-yl)methanol]
≤ 1000 | < 100 | CCOc1cc(-c2cccc([C@@H](N)C3CC3)n2)cc2c1cnn2-c1cncc(CO)n1 [Example 501, (S)-(6-(6-(6-(amino(cyclopropyl)methyl)pyridin-2-yl)-4-ethoxy-1H-indazol-1-yl)pyrazin-2-yl)methanol]
≤ 1000 | < 100 | COc1cc(-c2cccc([C@@H](N)CCC(F)(F)F)n2)cc2c1cnn2-c1cccc(CO)n1 [Example 502, (S)-(6-(6-(6-(1-amino-4,4,4-trifluorobutyl)pyridin-2-yl)-4-methoxy-1H-indazol-1-yl)pyridin-2-yl)methanol]
≤ 1000 | < 100 | CC[C@H](N)c1cccc(-c2cc(OC)c3cnn(-c4cncc(CO)n4)c3c2)n1 [Example 503, (S)-(6-(6-(6-(1-aminopropyl)pyridin-2-yl)-4-methoxy-1H-indazol-1-yl)pyrazin-2-yl)methanol]
≤ 1000 | < 100 | CCC[C@H](N)c1cccc(-c2cc(OC)c3cnn(-c4nccc(C(F)(F)F)n4)c3c2)n1 [Example 504, (S)-1-(6-(4-methoxy-1-(4-(trifluoromethyl)pyrimidin-2-yl)-1H-indazol-6-yl)pyridin-2-yl)butan-1-amine]
≤ 1000 | < 100 | CCC[C@H](N)c1cccc(-c2cc(OCC)c3cnn(-c4nccc(C(F)(F)F)n4)c3c2)n1 [Example 505, (S)-1-(6-(4-ethoxy-1-(4-(trifluoromethyl)pyrimidin-2-yl)-1H-indazol-6-yl)pyridin-2-yl)butan-1-amine]
≤ 1000 | < 100 | CCC[C@H](N)c1cccc(-c2cc(OCC3CCCNC3)c3cnn(-c4cccc(CO)n4)c3c2)n1 (stereo partly drawn) [Example 506, (6-(6-(6-((S)-1-aminobutyl)pyridin-2-yl)-4-(piperidin-3-ylmethoxy)-1H-indazol-1-yl)pyridin-2-yl)methanol]
≤ 1000 | < 100 | CCC(O)C(N)c1cccc(-c2ccc3cnn(-c4cccc(CO)n4)c3c2)n1 (stereo not shown) [Example 507, 1-amino-1-(6-(1-(6-(hydroxymethyl)pyridin-2-yl)-1H-indazol-6-yl)pyridin-2-yl)butan-2-ol]
≤ 1000 | < 100 | CC(O)CC(N)c1cccc(-c2ccc3cnn(-c4cccc(CO)n4)c3c2)n1 (stereo not shown) [Example 508, 4-amino-4-(6-(1-(6-(hydroxymethyl)pyridin-2-yl)-1H-indazol-6-yl)pyridin-2-yl)butan-2-ol]
≤ 1000 | < 100 | COCCC[C@H](N)c1cccc(-c2cc(OC)c3cnn(-c4cccc(CO)n4)c3c2)n1 [Example 509, (S)-(6-(6-(6-(1-amino-4-methoxybutyl)pyridin-2-yl)-4-methoxy-1H-indazol-1-yl)pyridin-2-yl)methanol]

EC50 [1] [nM] | IC50 [2] [nM] | SMILES
≤ 1000 | < 100 | CCOc1cc(-c2cccc([C@@H](N)CCC(F)(F)F)n2)cc2c1cnn2-c1cccc(CO)n1 [Example 510, (S)-(6-(6-(6-(1-amino-4,4,4-trifluorobutyl)pyridin-2-yl)-4-ethoxy-1H-indazol-1-yl)pyridin-2-yl)methanol]
≤ 1000 | < 100 | CCC[C@H](N)c1cccc(-c2cc(C#N)c3cnn(-c4cccc(CO)n4)c3c2)n1 [Example 511, (S)-6-(6-(1-aminobutyl)pyridin-2-yl)-1-(6-(hydroxymethyl)pyridin-2-yl)-1H-indazole-4-carbonitrile]
≤ 1000 | < 100 | CC[C@H](N)c1cccc(-c2ccc3cnn(-c4nccc(C(F)F)n4)c3c2)n1 [Example 512, (S)-1-(6-(1-(4-(difluoromethyl)pyrimidin-2-yl)-1H-indazol-6-yl)pyridin-2-yl)propan-1-amine]
≤ 1000 | < 100 | CCOc1cc(-c2cccc([C@@H](N)CCCOC)n2)cc2c1cnn2-c1cccc(CO)n1 [Example 513, (S)-(6-(6-(6-(1-amino-4-methoxybutyl)pyridin-2-yl)-4-ethoxy-1H-indazol-1-yl)pyridin-2-yl)methanol]
≤ 1000 | < 100 | CCC[C@H](N)c1cccc(-c2cc(OCC(F)(F)F)c3cnn(-c4cccc(CO)n4)c3c2)n1 [Example 514, (S)-(6-(6-(6-(1-aminobutyl)pyridin-2-yl)-4-(2,2,2-trifluoroethoxy)-1H-indazol-1-yl)pyridin-2-yl)methanol]
≤ 1000 | < 100 | CCC[C@H](N)c1cccc(-c2cc(C3CCN(C(C)=O)CC3)c3cnn(-c4cccc(CO)n4)c3c2)n1 [Example 515, (S)-1-(4-(6-(6-(1-aminobutyl)pyridin-2-yl)-1-(6-(hydroxymethyl)pyridin-2-yl)-1H-indazol-4-yl)piperidin-1-yl)ethanone]
≤ 1000 | < 100 | CCC[C@H](N)c1cccc(-c2cc(CN(C)C)c3cnn(-c4cccc(CO)n4)c3c2)n1 [Example 517, (S)-(6-(6-(6-(1-aminobutyl)pyridin-2-yl)-4-((dimethylamino)methyl)-1H-indazol-1-yl)pyridin-2-yl)methanol]
≤ 1000 | < 100 | CCC[C@H](N)c1cccc(-c2ccc3cnn(-c4cccc(CF)n4)c3c2)n1 [Example 518, (S)-1-(6-(1-(6-(fluoromethyl)pyridin-2-yl)-1H-indazol-6-yl)pyridin-2-yl)butan-1-amine]
≤ 1000 | < 100 | CSCC(N)c1cccc(-c2ccc3cnn(-c4cccc(CO)n4)c3c2)n1 (stereo not shown) [Example 520, (6-(6-(6-(1-amino-2-(methylthio)ethyl)pyridin-2-yl)-1H-indazol-1-yl)pyridin-2-yl)methanol]
≤ 1000 | < 100 | CC(C)C[C@H](N)c1cccc(-c2ccc3cnn(-c4cccc(CO)n4)c3c2)n1 [Example 521, (S)-(6-(6-(6-(1-amino-3-methylbutyl)pyridin-2-yl)-1H-indazol-1-yl)pyridin-2-yl)methanol]
≤ 1000 | < 100 | CCC[C@H](N)c1cccc(-c2cc(OCCC3CC3)c3cnn(-c4cccc(CO)n4)c3c2)n1 [Example 522, (S)-(6-(6-(6-(1-aminobutyl)pyridin-2-yl)-4-(2-cyclopropylethoxy)-1H-indazol-1-yl)pyridin-2-yl)methanol]
≤ 1000 | < 100 | CCC[C@H](N)c1cccc(-c2cc(OC(F)(F)F)c3cnn(-c4cccc(CO)n4)c3c2)n1 [Example 523, (S)-(6-(6-(6-(1-aminobutyl)pyridin-2-yl)-4-(trifluoromethoxy)-1H-indazol-1-yl)pyridin-2-yl)methanol]
≤ 1000 | < 100 | C[C@H](N)c1cccc(-c2cc(C3=NCCO3)c3cnn(-c4cccc(CO)n4)c3c2)n1 [Example 524, (S)-(6-(6-(6-(1-aminoethyl)pyridin-2-yl)-4-(4,5-dihydrooxazol-2-yl)-1H-indazol-1-yl)pyridin-2-yl)methanol]
≤ 1000 | < 100 | CCC[C@H](N)c1cccc(-c2cc(OC(F)F)c3cnn(-c4cncc(CO)n4)c3c2)n1 [Example 526, (S)-(6-(6-(6-(1-aminobutyl)pyridin-2-yl)-4-(difluoromethoxy)-1H-indazol-1-yl)pyrazin-2-yl)methanol]
≤ 1000 | < 100 | CCC[C@H](NC)c1cccc(-c2ccc3cnn(-c4cccc(CO)n4)c3c2)n1 [Example 527, (S)-(6-(6-(6-(1-(methylamino)butyl)pyridin-2-yl)-1H-indazol-1-yl)pyridin-2-yl)methanol]
≤ 1000 | < 100 | CC1COC(c2cc(-c3cccc([C@H](C)N)n3)cc3c2cnn3-c2cccc(CO)n2)=N1 (stereo partly drawn) [Example 528, (6-(6-(6-((S)-1-aminoethyl)pyridin-2-yl)-4-(4-methyl-4,5-dihydrooxazol-2-yl)-1H-indazol-1-yl)pyridin-2-yl)methanol]
